{"source": "patent US4622337A", "about": "“2,2-dimethyl-3-(2-halovinyl)cyclopropane carboxlic acid ester pesticides” (priority 1972, dated 1986)", "key": {"[1]": {"assay": "Mammalian toxicity in mice", "conditions": "mouse, in vivo; oral acute"}, "[2]": {"assay": "Mammalian toxicity in rats", "conditions": "rat, in vivo"}, "[3]": {"system": "mustard beetles (Phaedon cochleariae Fab)", "assay": "Relative toxicity to mustard beetles, topical micro drop", "format": "in vivo", "conditions": "for Relative Toxicity, Mustard Beetles: 5-benzyl-3-furylmethyl (1R)-trans-chrysanthemate = 1000, inverse ratio of LD50, topical, 48 hours", "experimental": "(§1) The toxicity of these new esters was tested by the procedure described in detail in our above mentioned application and the following results were obtained:\n(§2) The insecticidal acitivity of the esters of the invention was assessed against houseflies and mustard beetles using the following techniques:\nAcetone solutions of the test compound were applied ventrally to adult mustard beetles using a micro drop applicator. The treated insects were maintained for 48 hours after which time kill is assessed. Two replicates of 40 to 50 mustard beetles were used at each dose level and 3 to 4 dose levels were used for each compound. Again, LD50 values were calculated and relative toxicities were calculated for the inverse ratios of LD50 (see Elliott et al, J. Sci. Food Agric. 20, 561, (1969)).\n(§3) Relative toxicities were calculated by comparison with 5-benzyl-3-furylmethyl(1R)-trans-chrysanthemate which is one of the most toxic chrysanthemate esters known to houseflies and mustard beetles, its toxicity being about 24 times that of allethrin to houseflies and 65 times that of allethrin to mustard beetles."}, "[4]": {"system": "female flies (houseflies)", "assay": "Synergisability with sesamex, 2 μg per fly pretreatment", "format": "in vivo, Musca domestica", "conditions": "for Approx. Synergistic factor: sesamex, 2 μg. per fly", "experimental": "(§4) Female flies were treated on the thorax with a one microliter drop of insecticide dissolved in acetone. Two replicates of 15 flies were used at each dose rate and 6 dose rates were used per compound under test. After treatment, the flies were maintained at a temperature of 20° C.±1° and kill was assessed 24 and 48 hours after treatment. LD50 values were calculated in micrograms of insecticide per fly and relative toxicities were calculated from the inverse ratios of the LD50 values."}, "[5]": {"system": "houseflies (Musca domestica)", "assay": "Relative toxicity to houseflies, topical drop on thorax", "format": "in vivo", "conditions": "for Relative Toxicity, Houseflies: 5-benzyl-3-furylmethyl (1R)-trans-chrysanthemate = 1000, inverse ratio of LD50, topical, female flies", "experimental": "as §1, §2\nas §4, with “values. (see Sawicki et al, Bulletin of the World Health Organization, 35,893, (1966) and Sawicki et al, Entomologia and Exp. Appl. 10, 253, (1967)).” for “values.”\nas §3"}, "[6]": {"system": "American cockroach, Periplaneta americana L.", "assay": "Toxicity relative to bioresmethrin against American cockroach", "format": "in vivo", "conditions": "for Relative Toxicity (American cockroach): Bioresmethrin = 100"}, "female Musca domestica": {"system": "female Musca domestica", "assay": "Topical application of pyrethroids alone and with piperonyl butoxide or Tropital", "format": "in vivo", "conditions": "for LD 50 active compound only: alone; for LD50 Active compound + piperonyl butoxide (1:5): with piperonyl butoxide (1:5)", "text": "Topical application of pyrethroids alone and in combination with synergist gave the following LD50 results in micrograms with female Musca domestica: […]"}, "[7]": {"system": "houseflies (M. domestica)", "assay": "Insecticidal activity by spraying in a Kearns and March chamber", "format": "in vivo, Musca domestica", "conditions": "for LD50: compound alone, odourless kerosene spray", "experimental": "The insecticidal activity of DP 870 against houseflies was tested by spraying M. domestica in a Kearns and March chamber with a solution of a compound in odourless kerosene, and LD50 values calculated. The activity of DP 870 synergised with piperonylbutoxide was also measured and the results compared with the LD50 value for compound P21H of Example 18."}, "[8]": {"system": "Ephestia kuhniella and Venturia canescens", "assay": "Selective toxicity to Ephestia compared to Venturia (LD50 ratio)", "format": "in vivo", "conditions": "for Selectivity (ratio of toxicity to Ephestia compared to Venturia): ratio from relative toxicity (LD50)", "text": "Experiments to compare the relative toxicity (LD50) of compound P39E with certain related compounds have been carried out towards both Ephestia kuhniella and Venturia canescens so that the relative toxicity to the two species can be calculated. […]"}, "[9]": {"system": "Boophilus microplus, Biarra strain", "assay": "Acaricidal activity: inhibition of egg laying of injected engorged female ticks", "format": "in vivo", "conditions": "Rhipicephalus microplus, 336 h, 14 days after injection, read-out: % Inhibition (egg laying ability)", "text": "Acaricidal activity has been measured by injecting solutions of test compound P39E into engorged female ticks, Boophilus microplus, Biarra strain and the ability of the female to lay eggs 14 days after injection determined. The results are exposed as a percent of inhibition of egg laying ability compared to untreated control ticks."}, "[10]": {"system": "female flies (houseflies)", "assay": "Synergisability with Sesamex, 5 micrograms per fly 3 hours before", "format": "in vivo, Musca domestica", "experimental": "The following results were obtained\nBy repeating the above synergisability test but pretreating flies instead with 5 micrograms per fly of the synergist Sesamex 3 hours before applying the pyrethroid, the following results were obtained: […]"}}}
{"smiles": "CC1(C)[C@H](C=C(Cl)Cl)[C@H]1C(=O)OCc1cccc(Oc2ccccc2)c1", "note": "(relative stereo)", "values": [{"measurement": "LD50", "setting": "[1]", "result": "> 300", "unit": "mg/kg"}, {"measurement": "LD50", "setting": "[2]; po", "result": "> 300", "unit": "mg/kg"}]}
{"smiles": "C#CCc1ccc(COC(=O)[C@@H]2[C@@H](C=C(Cl)Cl)C2(C)C)o1", "note": "(relative stereo)", "values": [{"measurement": "LD50", "setting": "[1]", "result": "~300", "unit": "mg/kg"}, {"measurement": "LD50", "setting": "[2]; po", "result": 300, "unit": "mg/kg"}]}
{"smiles": "CC1(C)[C@H](C=C(Cl)Cl)[C@H]1C(=O)OCc1coc(Cc2ccccc2)c1", "note": "(relative stereo)", "values": [{"measurement": "LD50", "setting": "[1]", "result": 100, "unit": "mg/kg"}]}
{"smiles": "CC(C)=C[C@@H]1[C@@H](C(=O)OCc2coc(Cc3ccccc3)c2)C1(C)C", "note": "[Bioresmethrin, 5-benzyl-3-furylmethyl (1R)--trans-chrysanthemate, reference compound]", "values": [{"measurement": "toxicity, times that of allethrin, to mustard beetles", "setting": "[3]; relative to allethrin", "result": "~65", "unit": "times"}, {"measurement": "Approx. Synergistic factor", "setting": "[4]", "result": "~9.4"}, {"measurement": "toxicity, times that of allethrin, to houseflies", "setting": "[5]; relative to allethrin", "result": "about 24 times"}, {"measurement": "LD50 (American cockroach)", "setting": "[6]; in vivo", "result": 2.5, "unit": "μg/insect"}, {"measurement": "LD50", "setting": "[2]; iv", "result": 340, "unit": "mg/kg"}, {"measurement": "LD50", "setting": "[2]; po", "result": "> 8000", "unit": "mg/kg"}]}
{"smiles": "CC/C=C\\[C@@H]1[C@@H](C(=O)OCc2coc(Cc3ccccc3)c2)C1(C)C", "note": "[Compound A]", "values": [{"measurement": "Relative Toxicity, Mustard Beetles", "setting": "[3]", "result": 2000}, {"measurement": "LD 50 active compound + synergist", "setting": "[4]; pretreated with 2 μg. per fly sesamex", "result": 0.00033, "unit": "μg. per female fly"}, {"measurement": "Approx. Synergistic factor", "setting": "[4]", "result": "~13"}, {"measurement": "LD 50 active compound only", "setting": "[4]; untreated flies", "result": 0.0042, "unit": "μg. per female fly"}, {"measurement": "Relative Toxicity, Houseflies", "setting": "[5]", "result": 1700}, {"measurement": "LD 50 active compound only", "setting": "female Musca domestica", "result": 0.034, "unit": "µg"}, {"measurement": "LD50 Active compound + piperonyl butoxide (1:5)", "setting": "female Musca domestica", "result": 0.015, "unit": "µg"}, {"measurement": "LD50", "setting": "[2]; iv", "result": 120, "unit": "mg/kg"}, {"measurement": "LD50", "setting": "[2]; po", "result": "800 to 1000", "unit": "mg/kg"}]}
{"smiles": "CC1(C)C(C=C(Cl)Cl)C1C(=O)OCc1cccc(Oc2ccccc2)c1", "note": "(stereo not shown) [Compound P21H]", "values": [{"measurement": "Relative Toxicity, Mustard Beetles", "setting": "[3]", "result": 740}, {"measurement": "Relative Toxicity, Houseflies", "setting": "[5]", "result": 660}, {"measurement": "LD50", "setting": "[7]", "result": 0.022, "unit": "μg/female"}, {"measurement": "LD 50 active compound only", "setting": "female Musca domestica", "result": 0.031, "unit": "µg"}, {"measurement": "LD50 Active compound + Tropital (1:5)", "setting": "female Musca domestica; with Tropital (1:5)", "result": 0.019, "unit": "µg"}, {"measurement": "LD50 Active compound + piperonyl butoxide (1:5)", "setting": "female Musca domestica", "result": 0.018, "unit": "µg"}]}
{"smiles": "CC1(C)[C@H](C(=O)OCc2cccc(Oc3ccccc3)c2)[C@@H]1C=C(Cl)Cl", "note": "[Compound P29L]", "values": [{"measurement": "Relative Toxicity (American cockroach)", "setting": "[6]", "result": "2,100"}, {"measurement": "Selectivity (ratio of toxicity to Ephestia compared to Venturia)", "setting": "[8]", "result": 2.3}]}
{"smiles": "CC1(C)[C@H](C=C(Cl)Cl)[C@H]1C(=O)OCc1cccc(Oc2ccccc2)c1", "note": "[Compound P29M, 3-Phenoxybenzyl-(1R)--trans-2,2-dimethyl-3-(2,2-dichlorovinyl)cyclopropanecarboxylate]", "values": [{"measurement": "Relative Toxicity, Houseflies", "setting": "[5]", "result": 740}, {"measurement": "Relative Toxicity (American cockroach)", "setting": "[6]", "result": 800}, {"measurement": "Selectivity (ratio of toxicity to Ephestia compared to Venturia)", "setting": "[8]", "result": 2.8}]}
{"smiles": "CC1(C)[C@H](C(=O)OC(C#N)c2cccc(C(=O)c3ccccc3)c2)[C@@H]1C=C(Br)Br", "note": "(stereo partly drawn) [Compound P39E, (αRS)-cyano-3-benzoylbenzyl(1R)cis-2,2-dimethyl-3-(2,2-dibromovinyl)-cyclopropane carboxylate]", "values": [{"measurement": "Relative Toxicity, Mustard Beetles", "setting": "[3]", "result": 2200}, {"measurement": "inhibition at 100 µg/mL", "setting": "[9]; 0.1 mg/ml", "result": 0, "unit": "%"}, {"measurement": "inhibition at 1000 µg/mL", "setting": "[9]; 1 mg/ml", "result": 90, "unit": "%"}, {"measurement": "inhibition at 10000 µg/mL", "setting": "[9]; 10 mg/ml", "result": 100, "unit": "%"}, {"measurement": "Relative Toxicity, Houseflies", "setting": "[5]", "result": 330}, {"measurement": "selectivity in words", "setting": "[8]; Ephestia over Venturia", "result": "very marked and quite unexpected selectivity"}, {"measurement": "Selectivity (ratio of toxicity to Ephestia compared to Venturia)", "setting": "[8]", "result": 7.9}]}
{"smiles": "CC1(C)[C@H](C=C(F)F)[C@H]1C(=O)OCN1C(=O)C2=C(CCCC2)C1=O", "note": "[DP 870]", "values": [{"measurement": "LD50", "setting": "[7]", "result": 0.09, "unit": "μg/female"}, {"measurement": "LD50, plus piperonyl-butoxide", "setting": "[7]; plus piperonyl butoxide (1:5 w/w)", "result": 0.04, "unit": "μg/female"}]}
{"smiles": "CC1(C)C(C=C(Br)Br)C1C(=O)OC(C#N)c1cccc(Oc2ccccc2)c1", "note": "[P29B (crystalline isomer), (αS)-cyano-3-phenoxybenzyl(1R)cis-2,2-dimethyl-3-(2,2-dibromovinyl)cyclopropane carboxylate]", "values": [{"measurement": "Relative Toxicity, Mustard Beetles", "setting": "[3]", "result": 14000}, {"measurement": "Relative Toxicity, Houseflies", "setting": "[5]", "result": 23000}, {"measurement": "LD50 Active compound (flies pretreated with synergist)", "setting": "[10]; 5 micrograms per fly Sesamex 3 hours before", "result": 0.00023, "unit": "µg"}, {"measurement": "Approx. synergist factor", "setting": "[10]; Sesamex, 5 micrograms per fly", "result": "~7"}, {"measurement": "LD 50 active compound only", "setting": "[10]; without synergist", "result": 0.0016, "unit": "µg"}, {"measurement": "Selectivity (ratio of toxicity to Ephestia compared to Venturia)", "setting": "[8]", "result": 3.6}]}
